Experimental data taken from patent publication US20240228493A1, “LRRK2 INHIBITORS AND USES THEREOF” (NEURON23, ICN., priority 2022, published 2024).

Columns and labels:
[1] = biological target: T1, wt human LRRK2, catalytic site (Homo sapiens, UniProt Q5S007); experiment: TR-FRET LanthaScreen Tb Kinase Activity Assay, LRRK2 inhibition; type: biochemical; details: 2 nM wt human LRRK2, 400 nM peptide, 38 μM ATP
T1 construct: wt human LRRK2, catalytic site, catalytic site (ThermoFisher/USA); purchased ThermoFisher
Procedure: The compounds disclosed herein were tested for their inhibitory effect on LRRK2 kinase according to the following procedures.
The protocol for basic TR-FRET LanthaScreen Tb Kinase Activity Assay inhibitor studies were as follows. LanthaScreen Kinase Activity Assays (ThermoFisher/USA) to evaluate inhibitors were performed by addition of 100 nL of test compound in corresponding DMSO dilutions/5 μL of kinase/fluorescein-ERM (LRRKtide) peptide mixture, Compound & kinase were pre-incubated for 15 minutes, then 5 μl of ATP into 384 well small volume plates. After incubation for 120 minutes at room temperature, the detection reagents containing Tb-anti-pLRRKtide antibody were added to monitor phosphorylation level of peptide. Then, after 60 min minutes incubation at room temperature plates were read in Envision. Data analysis of emission ratios was according to LanthaScreen Tb Kinase Activity Assay protocol.
Kinase and assay components were adjusted to final concentrations according to the kit protocol. For LRRK2: 2 nM wt human LRRK2, catalytic site, catalytic site (ThermoFisher/USA), 400 nM peptide, 38 μM ATP in 1× Kinase Buffer A. […]
Kinase and assay components were adjusted to final concentrations according to the kit protocol.

[2] = tested on: Caco-2 cells; experiment: Caco-2 bidirectional permeability; type: in vitro ADME; details: for Caco-2 ER: Efflux Ratio=Papp(BA)/Papp(AB); for Caco-2 A2B (10^−6 cm/s): apical to basolateral; for Caco-2 A2B (10^−6 cm/s) / Caco-2 B2A (10^−6 cm/s): 2 hours, pH 7.4; for Caco-2 B2A (10^−6 cm/s): basolateral to apical
Procedure: The compounds disclosed herein were tested in vitro on CaCo2 cell penetration according to the following procedures.
Caco-2 cells purchased from ATCC were seeded onto […] (PET) in 96-well Corning Insert plates at 1×10^5 cells/cm^2. The media were refreshed every 4 to 5 days until the 21st to 28th day for confluent cell monolayer formation.
Experiments were run in duplicate using a HBSS transport buffer containing 10 mM HEPES at pH 7.4. The test article TEST COMPOUND was tested bi-directionally at […] concentrations, the control compound digoxin was tested bi-directionally at 10 μM, and nadolol and metoprolol were tested at 2.0 μM in the A to B direction. Final DMSO concentrations were adjusted to less than 1%. The plates were incubated for 2 hours in a CO2 incubator at 37±1° C. with 5% CO2 at saturated humidity without shaking. Following incubation, samples were mixed with acetonitrile containing internal standard and centrifuged at 3200×g for 10 minutes. Then 200 μL of supernatant was taken from all samples. For TEST COMPOUND and digoxin, the supernatant was diluted with 200 μL of ultra-pure water and for nadolol and metoprolol, the supernatant was diluted with 600 μL of ultra-pure water. All samples were analyzed by LC-MS/MS. Concentrations of TEST COMPOUND and control compounds were determined in starting solutions, donor well solutions, and receiver well solutions using peak area ratios (PAR) of analyte to internal standard. After the transport assay, a lucifer yellow rejection assay was run to determine the Caco-2 cell monolayer integrity.
The apparent permeability (Papp), the % recovery and the efflux ratio were calculated as follows:
Papp=(dCr/dt)×Vr/(A×C0) 1.
Efflux Ratio=Papp(BA)/Papp(AB) 3. • Where: • dCr/dt is the slope of the cumulative concentration in the receiver compartment versus time (mM/s). • Vr and Vd is the volume in the receiver and donor compartments (0.075 mL on the apical side, 0.25 mL on the basolateral side), respectively. • A is the surface area of the cell monolayer (0.0804 cm^2). • C0 is the measured donor concentrations (μM) at the beginning of the experiment. • Cd and Cr are the final measured concentrations in the donor and receiver compartments, respectively.

[3] = tested on: human hepatocyte; experiment: Human hepatocyte stability, predicted hepatic clearance (h-Hept CL predict); type: in vitro ADME; details: human hepatocytes, 0.5×10^6 cells/mL, 1 μM, values without asterisk
Procedure: The compounds disclosed herein were tested in vitro on human hepatocyte for in vitro h-Hept CL predict according to the following procedures. • 1. Compound sock solutions were prepared by dissolving test compound and positive control in dimethyl sulfoxide (DMSO) at a concentration of 10 mM. Stock solutions were then diluted to 100 μM solutions by combining 198 μL of 50% acetonitrile/50% water with 2 μL of the 10 mM stock in separate conical tubes. • 2. Cryopreserved hepatocytes were prepared as follows: Incubation medium (William's E Medium supplemented with GlutaMAX) and hepatocyte thawing medium were placed in a 37° C. water bath and allowed to warm for at least 15 minutes prior to use. Cryopreserved hepatocytes were removed from storage, ensuring that vials remained at cryogenic temperatures until thawed. Cells were thawed by placing the vials in a 37° C. water bath and gently shaking the vials for 2 minutes. After thawing was completed, vials were sprayed with 70% ethanol and transferred to a biosafety cabinet. Hepatocytes were transferred into 50 mL conical tube containing thawing medium using wide-bore pipette tips. Tubes were placed into a centrifuge and spun at 100 g for 10 minutes. Then thawing medium was aspirated and hepatocytes were resuspended in enough incubation medium to yield ˜1.5×10^6 cells/mL. Cells were counted using acridine orange and propidium iodide (AO/PI) staining, and the viable cell density was determined. Cells were diluted with incubation medium to a working cell density of 0.5×10^6 viable cells/mL. • 3. To determine hepatocyte stability, 198 μL of hepatocytes were transferred into each well of a 96-well non-coated plate. Plates were placed in an incubator to allow the hepatocytes to warm for 10 minutes. • 4. The reaction was started by transferring 2 μL of the 100 μM test compound or positive control solution into respective wells of the 96-well non-coated plates. Plates were returned to the incubator until 25 μL aliquots of well contents were sampled at time points of 0, 15, 30, 60, 90 and 120 minutes. The aliquots were then mixed with 6 volumes (150 μL) of acetonitrile containing internal standard, IS (100 nM alprazolam, 200 nM caffeine and 100 nM tolbutamide) to terminate the reaction and vortexed for 5 minutes. After centrifuging the samples for 45 minutes at 3,220 g, aliquots of 100 μL of the supernatant were taken and diluted with 100 μL of ultra-pure water. The mixture was used for LC/MS/MS analysis. All incubations were performed in duplicate.
All calculations were carried out using Microsoft Excel. Peak area ratios (PAR) were determined from extracted ion chromatograms. The in vitro half-life (t1/2) of parent compound was determined by regression analysis of the percent parent disappearance vs. time curve as follows:
Conversion of the in vitro t1/2 (in minutes) into the in vitro intrinsic clearance (in vitro CLint, in μL/min/1×10^6 cells) was done using the following equation (mean of duplicate determinations): […]
The scaled-up intrinsic clearance (CLint, mL/min/kg), predicted hepatic clearance (CLH, mL/min/kg) and hepatic extraction ratio (ER) were calculated using the following equations:
CLint=(0.693/t1/2)*(1/(hepatocyte concentration (0.5*10^6 cells/mL)))*scaling factors (Table (A) Appendix Table 1)
CLHept-predict=(QH*Scaled-up CLint*fub)/(QH+Scaled-up CLint*fub)
ER=CLH/QH • Where: • V=incubation volume (0.2 mL) • N=number of hepatocytes per well (0.1*10^6 cells) • QH=hepatic blood flow (mL/min/kg) (Table (A) Appendix Table 1) • fub=fraction of unbound drug in plasma, assumed to be 1

T1 sequence (Q5S007 1879-2138 limits assumed): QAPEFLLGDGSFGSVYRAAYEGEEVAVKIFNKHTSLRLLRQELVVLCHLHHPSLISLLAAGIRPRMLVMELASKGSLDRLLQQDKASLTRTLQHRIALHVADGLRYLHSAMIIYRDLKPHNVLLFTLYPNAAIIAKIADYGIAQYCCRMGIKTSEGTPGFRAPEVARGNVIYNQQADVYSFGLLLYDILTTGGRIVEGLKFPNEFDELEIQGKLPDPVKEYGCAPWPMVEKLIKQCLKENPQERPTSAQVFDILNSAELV

IC50 [1]	Caco-2 ER [2]	Caco-2 B2A (10^−6 cm/s) [2]	Structure (SMILES)	Caco-2 A2B (10^−6 cm/s) [2]	hHep Cl (mL/min/kg) [3]
< 1 nM	L (L (Likely)”: ER≥2.5)	H (H (High permeability)”: A2B (B2A)>5)	Cc1n[nH]c2c1N=C(c1c(F)cccc1F)Nc1cnc(N3CCN(C)CC3)cc1-2 [Example 8, 8-(2,6-difluorophenyl)-5-methyl-13-(4-methylpiperazin-1-y1)-3,4,7,9,12-pentazatricyclo[8.4.0.02,6]tetradeca-1(10),2(6),4,7,11,13-hexaene]	M (M (Moderate permeability)”: 1≤A2B (B2A)≤5)	L (L (Low Cl)”: Hep Cl (mL/min/kg)<6.3)
< 1 nM	L (L (Likely)”: ER≥2.5)	H (H (High permeability)”: A2B (B2A)>5)	Cc1nc(N2CCC[C@@H](C#N)C2)cc2c1NC(c1c(F)cccc1F)=Nc1cn[nH]c1-2 [Example 47, (R)-1-(5-(2,6-difluorophenyl)-7-methyl-1,6-dihydropyrazolo[4,3-d]pyrido[4,3-f][1,3]diazepin-9-y1)piperidine-3-carbonitrile]	M (M (Moderate permeability)”: 1≤A2B (B2A)≤5)	H (H (High Cl)”: Hep Cl (mL/min/kg)>14.7)
< 1 nM	L (L (Likely)”: ER≥2.5)	H (H (High permeability)”: A2B (B2A)>5)	[2H]C1([2H])OC([2H])([2H])C([2H])([2H])N(c2cc3c(cn2)NC(c2c(F)cccc2F)=Nc2c(Cl)n[nH]c2-3)C1([2H])[2H] [Example 25, 4-[5-chloro-8-(2,6-difluorophenyl)-3,4,7,9,12-pentazatricyclo[8.4.0.02,6]tetradeca-1(10),2(6),4,7,11,13-hexaen-13-yl]-2,2,3,3,5,5,6,6-octadeuterio-morpholine]	M (M (Moderate permeability)”: 1≤A2B (B2A)≤5)	L (L (Low Cl)”: Hep Cl (mL/min/kg)<6.3)
1 to 100 nM	L (L (Likely)”: ER≥2.5)	H (H (High permeability)”: A2B (B2A)>5)	COC[C@H]1CN(c2cc3c(cn2)NC(c2c(F)cccc2F)=Nc2c(C)n[nH]c2-3)CCO1 [Example 15, (2R)-4-[8-(2,6-difluorophenyl)-5-methyl-3,4,7,9,12-pentazatricyclo[8.4.0.02,6]tetradeca-1(10),2(6),4,7,11,13-hexaen-13-y1]-2-(methoxymethyl)morpholine]	M (M (Moderate permeability)”: 1≤A2B (B2A)≤5)	L (L (Low Cl)”: Hep Cl (mL/min/kg)<6.3)
1 to 100 nM	L (L (Likely)”: ER≥2.5)	H (H (High permeability)”: A2B (B2A)>5)	Cc1cc(F)c(C2=Nc3cn[nH]c3-c3cc(N4CCOCC4)ncc3N2)c(F)c1 [Example 51, 4-(5-(2,6-difluoro-4-methylphenyl)-1,6-dihydropyrazolo[4,3-d]pyrido[4,3-f][1,3]diazepin-9-yl)morpholine]	H (H (High permeability)”: A2B (B2A)>5)	I (I (Intermediate Cl)”: 6.3≤Hep Cl (mL/min/kg)≤14.7)
1 to 100 nM	L (L (Likely)”: ER≥2.5)	H (H (High permeability)”: A2B (B2A)>5)	Cc1n[nH]c2c1N=C(c1c(F)cccc1F)Nc1cnc(N3CC[C@@H](C#N)C3)cc1-2 [Example 49, (R)-1-(5-(2,6-difluorophenyl)-3-methyl-1,6-dihydropyrazolo[4,3-d]pyrido[4,3-f][1,3]diazepin-9-y1)pyrrolidine-3-carbonitrile]	M (M (Moderate permeability)”: 1≤A2B (B2A)≤5)	I (I (Intermediate Cl)”: 6.3≤Hep Cl (mL/min/kg)≤14.7)
< 1 nM	L (L (Likely)”: ER≥2.5)	H (H (High permeability)”: A2B (B2A)>5)	Fc1cccc(F)c1C1=Nc2c(Cl)n[nH]c2-c2cc(-c3ccn(CC(F)F)n3)ncc2N1 [Example 30, (3-chloro-9-(1-(2,2-difluoroethyl)-1H-pyrazol-3-yl)-5-(2,6-difluorophenyl)-1,6-dihydropyrazolo[4,3-d]pyrido[4,3-f][1,3]diazepine)]	M (M (Moderate permeability)”: 1≤A2B (B2A)≤5)	I (I (Intermediate Cl)”: 6.3≤Hep Cl (mL/min/kg)≤14.7)

Structure (SMILES)	IC50 [1]	Caco-2 ER [2]	Caco-2 B2A (10^−6 cm/s) [2]	Caco-2 A2B (10^−6 cm/s) [2]	hHep Cl (mL/min/kg) [3]
Cc1n[nH]c2c1N=C(c1c(F)cccc1F)Nc1cnc(N3CCO[C@@]4(CCOC4)C3)cc1-2 (single isomer, unassigned) [Example 3]	< 1 nM	L (L (Likely)”: ER≥2.5)	H (H (High permeability)”: A2B (B2A)>5)	M (M (Moderate permeability)”: 1≤A2B (B2A)≤5)	L (L (Low Cl)”: Hep Cl (mL/min/kg)<6.3)
Cc1n[nH]c2c1N=C(c1c(F)cccc1F)Nc1cnc(N3CCOC4(COC4)C3)cc1-2 [Example 5, 8-[8-(2,6-difluorophenyl)-5-methyl-3,4,7,9,12-pentazatricyclo[8.4.0.02,6]tetradeca-1(10),2(6),4,7,11,13-hexaen-13-y1]-2,5-dioxa-8-azaspiro[3.5]nonane]	< 1 nM	L (L (Likely)”: ER≥2.5)	H (H (High permeability)”: A2B (B2A)>5)	L (L (Low permeability)”: A2B (B2A)<1)	L (L (Low Cl)”: Hep Cl (mL/min/kg)<6.3)
